{
  "source": "patent US12486253B2",
  "about": "“Therapeutics for the degradation of mutant BRAF” (C4 THERAPEUTICS, INC., priority 2021, dated 2025)",
  "key": {"[1]": {"biological_target": "T1, BRAF class III mutation G466V (Homo sapiens, UniProt P15056, G466V)", "T1 construct": "cells endogenously expressing the Class III mutation G466V; host or cells: H1666", "T1 sequence (P15056 2-766 G466V)": "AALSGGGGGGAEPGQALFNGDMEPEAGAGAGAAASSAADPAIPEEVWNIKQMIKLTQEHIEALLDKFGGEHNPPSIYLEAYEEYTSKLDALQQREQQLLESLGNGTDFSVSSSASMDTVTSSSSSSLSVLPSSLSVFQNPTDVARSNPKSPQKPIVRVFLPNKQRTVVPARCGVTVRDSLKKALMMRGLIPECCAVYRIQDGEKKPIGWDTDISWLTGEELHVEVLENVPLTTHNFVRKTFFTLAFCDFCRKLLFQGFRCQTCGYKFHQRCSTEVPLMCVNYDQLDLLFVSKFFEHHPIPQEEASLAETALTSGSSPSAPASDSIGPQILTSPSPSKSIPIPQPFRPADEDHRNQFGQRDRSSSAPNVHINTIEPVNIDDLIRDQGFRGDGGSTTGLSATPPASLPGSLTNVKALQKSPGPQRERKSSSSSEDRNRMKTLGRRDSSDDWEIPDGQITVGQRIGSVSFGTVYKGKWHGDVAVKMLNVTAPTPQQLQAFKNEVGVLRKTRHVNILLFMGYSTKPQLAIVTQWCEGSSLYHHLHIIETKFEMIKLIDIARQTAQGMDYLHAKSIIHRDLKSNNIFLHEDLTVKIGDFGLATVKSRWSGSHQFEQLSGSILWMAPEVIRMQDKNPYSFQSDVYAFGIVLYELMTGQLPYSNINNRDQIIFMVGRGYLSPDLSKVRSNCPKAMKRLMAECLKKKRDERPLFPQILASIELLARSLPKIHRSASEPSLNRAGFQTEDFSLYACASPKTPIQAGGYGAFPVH", "experiment": "Western blot of H1666 cells endogenously expressing G466V", "format": "cell-based", "details": "24 hours"}, "[2]": {"biological_target": "T2, BRAF class III mutant G466V (Homo sapiens, UniProt P15056, G466V)", "T2 construct": "host or cells: HEK-293T, lentiviral expression", "T2 sequence (P15056 whole entry G466V)": "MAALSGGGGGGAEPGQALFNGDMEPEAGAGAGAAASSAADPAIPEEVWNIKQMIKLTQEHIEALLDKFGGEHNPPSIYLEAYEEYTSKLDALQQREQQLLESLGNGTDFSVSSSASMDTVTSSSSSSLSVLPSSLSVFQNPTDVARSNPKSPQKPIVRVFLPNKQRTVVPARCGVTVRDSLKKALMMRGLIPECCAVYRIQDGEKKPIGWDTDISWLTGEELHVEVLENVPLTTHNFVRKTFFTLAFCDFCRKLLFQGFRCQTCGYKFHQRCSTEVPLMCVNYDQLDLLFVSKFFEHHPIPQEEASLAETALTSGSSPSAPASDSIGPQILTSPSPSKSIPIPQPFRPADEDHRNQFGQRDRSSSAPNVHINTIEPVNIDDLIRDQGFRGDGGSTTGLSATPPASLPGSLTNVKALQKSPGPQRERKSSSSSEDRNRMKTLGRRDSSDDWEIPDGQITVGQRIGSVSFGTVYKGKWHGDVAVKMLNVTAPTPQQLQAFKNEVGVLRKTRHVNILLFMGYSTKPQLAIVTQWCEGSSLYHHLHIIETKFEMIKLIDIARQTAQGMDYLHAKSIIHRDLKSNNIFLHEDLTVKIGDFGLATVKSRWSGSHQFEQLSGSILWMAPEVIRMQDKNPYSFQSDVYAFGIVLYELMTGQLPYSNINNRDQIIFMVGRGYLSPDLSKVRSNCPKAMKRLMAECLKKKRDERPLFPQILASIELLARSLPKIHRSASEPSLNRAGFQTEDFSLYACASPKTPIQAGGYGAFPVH", "experiment": "Western blot of engineered HEK-293T cells expressing class III mutant G466V", "format": "cell-based", "details": "lentivirus expression"}, "BRAF V600E [3]": {"biological_target": "T3, BRAF V600E (Homo sapiens, UniProt P15056, V600E)", "T3 sequence (P15056 whole entry V600E)": "as the sequence (P15056 whole entry G466V) above, with V466G, V600E counted along it", "experiment": "Western blot of BRAF V600E levels in A375 cells", "format": "cell-based", "design": "host or cells: A375"}, "phospho-ERK (T202/Y204)": {"test_system": "phospho-ERK (T202/Y204)", "experiment": "HTRF phospho-ERK (T202/Y204) assay in A375-NRAS^Q61K cells", "format": "cell-based", "details": "24 hrs, mean of at least n = 3, read-out: pERK IC50", "excerpt": "A375-NRAS^Q61K cells (harboring BRAF homozygous V600E mutation and NRAS homozygous Q61K mutation) were purchased from ATCC. DMEM Medium without phenol red and supplemented with L-glutamine was purchased from Corning (Corning, NY, USA). Advanced phospho-ERK (Thr202/Tyr204) HTRF assay kits were purchased from Cisbio (Bedford, MA, USA). Cell culture flasks and 384-well microplates were acquired from VWR (Radnor, PA, USA) or Corning (Corning, NY, USA).\nDegradation of activated phospho-ERK (T202/Y204) protein was determined based on quantification of FRET signal using the Advanced phospho-ERK (T202/Y204) HTRF assay kit. Test compounds were added to the 384-well plate from a top concentration of 10 μM with 11 points, half log titration in duplicates. A375-NRAS^Q61K cells were added into 384-well plates at a cell density of 2000 cells per well. The plates were kept at 37° C. with 5% CO2 for 24 hours. Cells treated in the absence of the test compound were the negative control. Positive control was set by wells containing all reagents but no cells. FRET signal was acquired on EnVision™ Multilabel Reader (PerkinElmer, Santa Clara, CA, USA)."}, "[4]": {"experiment": "Body weight change in the A375 xenograft study", "format": "in vivo, BALB/c nude mice", "details": "all doses, PO, A375 tumor-bearing mice", "procedure": "The efficacy study was conducted in female BALB/c nude mice bearing A375 tumors. Female BALB/c nude mice were inoculated subcutaneously in the right flank with A375 tumor cells (5×10^6) in 0.2 mL of PBS supplemented with Matrigel (at a 1:1 ratio) for tumor development. Tumor volume was measured twice weekly in two dimensions using calipers, and volume (mm^3) was calculated using the formula: V=0.5 a×b^2 where a and b are the long and short diameters of the tumor in mm, respectively. Once the tumors reached an average tumor volume of 246 mm^3 (16 days after implantation), the animals were divided randomly into groups of 6, stratified to result in about equal average tumor sizes in each treatment group and treatment began on Day 0.\nAll agents were administered to mice bearing A375 tumors orally (PO), daily (QD; encorafenib), twice a day (BID) or three times a day (TID) for Compound 157, for 21 or 35 days. encorafenib was dosed at 35 mg/kg and Compound 157 at 0.1, 0.3, 1, 3 or 10 mg/kg twice a day or 2 mg/kg three times a day. Compound 157 was formulated in 20% PEG400+80% (25% SBECD). Body weight and MTV were measured on a 2× weekly schedule and reported as Mean±SEM."}, "[5]": {"biological_target": "BRAF V600E, test compound and CRBN ternary complex (Homo sapiens, UniProt P15056+Q96SW2, V600E)", "sequence (P15056 whole entry V600E)": "as the sequence (P15056 whole entry G466V) above, with V466G, V600E counted along it", "sequence (Q96SW2 whole entry)": "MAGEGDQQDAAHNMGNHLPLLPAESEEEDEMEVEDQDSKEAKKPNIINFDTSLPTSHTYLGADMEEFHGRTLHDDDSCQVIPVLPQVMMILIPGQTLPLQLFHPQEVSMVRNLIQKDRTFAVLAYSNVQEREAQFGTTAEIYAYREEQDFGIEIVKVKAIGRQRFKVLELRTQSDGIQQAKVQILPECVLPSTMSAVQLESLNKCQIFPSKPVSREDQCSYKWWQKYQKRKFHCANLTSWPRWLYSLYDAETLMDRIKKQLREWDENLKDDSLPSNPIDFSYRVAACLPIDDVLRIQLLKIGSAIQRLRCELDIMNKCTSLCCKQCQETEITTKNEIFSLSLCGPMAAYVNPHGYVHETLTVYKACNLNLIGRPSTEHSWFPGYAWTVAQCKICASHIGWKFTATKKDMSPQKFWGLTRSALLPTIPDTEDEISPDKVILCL", "experiment": "AlphaLISA ternary complex formation assay", "format": "binding", "details": "GST-BRAF V600E 16 nM, His-CRBN 64 nM", "procedure": "Formation of the ternary complex between BRAF V600E, test compound and CRBN was quantified using AlphaLISA® assay. GST-tagged BRAF V600E and His-tagged CRBN were labeled with a donor/acceptor AlphaLISA® pair, and complex formation was monitored via a change in the Alpha-signal. Signal from the control wells was used as a normalization control.\nCharacterization of the ternary complex formation between GST-BRAF V600E, Compound 157 and his-CRBN was carried out using an AlphaLISA® assay. Compounds were dispensed from serially diluted DMSO stock in low dead volume plates into gray 384-well AlphaPlates using acoustic technology to 1% of total reaction volume. Compounds were arranged vertically in rows A through P. Concentration series were horizontal: columns 1-11, and then duplicates in columns 12-22.\nExcitation of the donor beads results in generation of singlet oxygen molecules. […]\nA 10 μL mixture containing 16 nM of BRAF V600E and 64 nM of CRBN in 50 mM HEPES (pH 7.4), 200 mM NaCl, 1 mM TCEP, 0.05% Pluronic Acid, 0.1% BSA was added to the wells containing test compounds (columns 1-22) and the negative control wells (column 23). […] Plates were then read on an Envision plate reader with an appropriate AlphaLISA® filter set."}, "[6]": {"test_system": "H1666 cells endogenously expressing the class III BRAF mutation G466V", "experiment": "Cellular growth over time in H1666 cells", "format": "cell-based"}, "BRAF V600E [7]": {"biological_target": "T3, BRAF V600E", "experiment": "HiBiT cellular BRAF^V600E degradation assay", "format": "cell-based"}, "A375 tumors": {"test_system": "A375 tumors", "experiment": "In vivo efficacy in A375 xenografts", "design": "species or system BALB/c nude mice"}, "A375 cells": {"test_system": "A375 cells", "experiment": "Cellular confluence of A375 cells by live cell imaging", "format": "cell-based", "details": "end of the 7-day experiment"}},
  "note": "Entries after “also recorded” stand apart in the source; their conditions may differ. Like-named read-outs stand apart in the source and are kept apart here.",
  "data": [
    {"molecule": "CCN(C)S(=O)(=O)Nc1ccc(F)c(Oc2ccc3ncn([C@H]4COC5(CCN(C(=O)CC6(O)CCN(c7cc8c(cc7F)c(N7CCC(=O)NC7=O)nn8C)CC6)CC5)C4)c(=O)c3c2)c1C#N", "note": "[Compound 157, (3R)-3-[6-[2-cyano-3-[[ethyl(methyl)sulfamoyl]amino]-6-fluorophenoxy]-4-oxoquinazolin-3-yl]-8-[2-[1-[3-(2,4-dioxo-1,3-diazinan-1-yl)-5-fluoro-1-methylindazol-6-yl]-4-hydroxypiperidin-4-yl]acetyl]-1-oxa-8-azaspiro[4.5]decane]", "values": [
      {"measurement": "phosphorylated ERK signal", "setting": "[1]", "value": "decrease"},
      {"measurement": "reduction in BRAF signal", "setting": "[1]; includes any WT BRAF", "value": 53, "unit": "%"},
      {"measurement": "degradation of class III mutant G466V", "setting": "[2]", "value": "capable of degrading"},
      {"measurement": "BRAF V600E levels", "setting": "BRAF V600E [3]", "value": "significantly decreased; also recorded: decrease in a dose dependent manner"},
      {"measurement": "IC50", "setting": "phospho-ERK (T202/Y204)", "value": 7.8, "unit": "nM"},
      {"measurement": "Mean body weight loss throughout the study", "setting": "[4]", "value": "≤ 3.5", "unit": "%"},
      {"measurement": "Ternary complex formation (concentration dependence)", "setting": "[5]", "value": "characteristic bell-shaped curve"},
      {"measurement": "cell growth inhibition", "setting": "[6]; G466V", "value": "effective"},
      {"measurement": "confluency", "setting": "[6]; over the course of 7 days", "value": "≤ 30", "unit": "%"},
      {"measurement": "cell growth, in combination with trametinib", "setting": "[6]; with 1 nM trametinib", "value": "failed to expand"},
      {"measurement": "BRAF protein degraded", "setting": "BRAF V600E [7]", "value": 74, "unit": "%"},
      {"measurement": "HiBit 24 h Emax", "setting": "BRAF V600E [7]", "value": 27.48, "unit": "%"},
      {"measurement": "Emax", "setting": "BRAF V600E [7]; A-375, read-out: Emax BRAF^V600E degradation", "value": 26, "unit": "%"},
      {"measurement": "Emax", "setting": "BRAF V600E [7]; read-out: HiBit 24 h Emax", "value": "~25", "unit": "%"},
      {"measurement": "efficacy compared with encorafenib", "setting": "A375 tumors; oral delivery", "value": "more efficacious than a clinically relevant dose of encorafenib"},
      {"measurement": "tumor response", "setting": "A375 tumors; oral, 10 mg/kg BID", "value": "profound tumor regressions"},
      {"measurement": "cellular confluence", "setting": "A375 cells", "value": "~20", "unit": "%"}
    ]}
  ]
}
